# Laboratory results: ChEMBL document CHEMBL5352452, “Design, synthesis and pharmacological evaluation of β-carboline derivatives as potential antitumor agent via targeting autophagy” (Eur J Med Chem, 2023)
# Active and inactive are the calls of the source. The rule behind the calls is not given here.
# Assays:
# MCF7 = assay: Antiproliferative activity against human MCF7 cells assessed as inhibition of cell growth measured after 48 hrs by MTT assay; format: functional, cell-based; settings: MCF7, 48 h
# A-375 = assay: Antiproliferative activity against human A-375 cells assessed as inhibition of cell growth measured after 48 hrs by MTT assay; format: functional, cell-based; settings: A-375, 48 h
# HT-29 = assay: Antiproliferative activity against human HT-29 cells assessed as inhibition of cell growth measured after 48 hrs by MTT assay; format: functional, cell-based; settings: HT-29, 48 h
# CWR22R = assay: Antiproliferative activity against human 22Rv1 cells assessed as inhibition of cell growth measured after 48 hrs by MTT assay; format: functional, cell-based; settings: 22Rv1, 48 h
# ECa-109 cell line = assay: Antiproliferative activity against human Eca-109 cells assessed as inhibition of cell growth measured after 48 hrs by MTT assay; format: functional, cell-based; settings: ECa-109, 48 h
# HCT-116 [1] = assay: Antiproliferative activity against human HCT-116 cells assessed as inhibition of cell growth measured after 24 hrs by CCK-8 assay; format: functional, cell-based; settings: HCT-116, 24 h
# HCT-116 [2] = assay: Antiproliferative activity against human HCT-116 cells assessed as inhibition of cell growth at 1 to 4 uM by CCK-8 assay; format: functional, cell-based; settings: dose 1-4 µM, time <= 7.0 day, TDE = time-dependent effect
# HCT-116 [3] = assay: Induction of apoptosis in human HCT-116 cells assessed as viable cells at 2 uM incubated for 24 hrs by annexin V FITC/propidium iodide staining based flow cytometry (reference value: 83 %); format: functional; settings: read-out: Activity
# HCT-116 [4] = assay: Induction of apoptosis in human HCT-116 cells assessed as early apoptotic cells at 2 uM incubated for 24 hrs by annexin V FITC/propidium iodide staining based flow cytometry (reference value: 4.7%); format: functional
# HCT-116 [5] = assay: Induction of apoptosis in human HCT-116 cells assessed as late apoptotic cells at 1 uM incubated for 24 hrs by annexin V FITC/propidium iodide staining based flow cytometry (reference value: 4.6%); format: functional
# HCT-116 [6] = assay: Induction of apoptosis in human HCT-116 cells assessed as late apoptotic cells at 2 uM incubated for 24 hrs by annexin V FITC/propidium iodide staining based flow cytometry (reference value: 4.6%); format: functional
# HCT-116 [7] = assay: Induction of apoptosis in human HCT-116 cells assessed as necrotic cells at 1 uM incubated for 24 hrs by annexin V FITC/propidium iodide staining based flow cytometry (reference value: 7.7%); format: functional
# HCT-116 [8] = assay: Induction of apoptosis in human HCT-116 cells assessed as necrotic cells at 2 uM incubated for 24 hrs by annexin V FITC/propidium iodide staining based flow cytometry (reference value: 7.7%); format: functional
# HCT-116 [9] = assay: Induction of apoptosis in human HCT-116 cells assessed as viable cells at 1 uM incubated for 24 hrs in presence of Z-VAD-FMK by annexin V FITC/propidium iodide staining based flow cytometry (reference value: 86.2 %); format: functional; settings: read-out: Activity
# HCT-116 [10] = assay: Induction of apoptosis in human HCT-116 cells assessed as early apoptotic cells at 1 uM incubated for 24 hrs in presence of Z-VAD-FMK by annexin V FITC/propidium iodide staining based flow cytometry (reference value: 6.3 %); format: functional
# HCT-116 [11] = assay: Induction of apoptosis in human HCT-116 cells assessed as early apoptotic cells at 2 uM incubated for 24 hrs in presence of Z-VAD-FMK by annexin V FITC/propidium iodide staining based flow cytometry (reference value: 6.3 %); format: functional
# HCT-116 [12] = assay: Induction of apoptosis in human HCT-116 cells assessed as late apoptotic cells at 2 uM incubated for 24 hrs in presence of Z-VAD-FMK by annexin V FITC/propidium iodide staining based flow cytometry (reference value: 4.6 %); format: functional
# HCT-116 [13] = assay: Induction of apoptosis in human HCT-116 cells assessed as necrotic cells at 2 uM incubated for 24 hrs in presence of Z-VAD-FMK by annexin V FITC/propidium iodide staining based flow cytometry (reference value: 2.9 %); format: functional
# HCT-116 [14] = assay: Induction of apoptosis in human HCT-116 cells assessed as increase in caspase 3 expression upto 5 uM incubated for 24 hrs by Western blot analysis; format: functional, cell-based
# HCT-116 [15] = assay: Antiproliferative activity against p53 knockout human HCT-116 cells assessed as inhibition of cell growth measured after 24 hrs by CCK-8 assay; format: functional, cell-based; settings: HCT-116, 24 h
# HCT-116 [16] = assay: Induction of apoptosis in p53 knockout human HCT-116 cells assessed as increase in LC3-II expression upto 4 uM incubated for 24 hrs by Western blot analysis; format: functional, cell-based
# HCT-116 [17] = assay: Induction of autophagy in human HCT-116 cells expressing assessed as LC3B-EGFP-mCherry at 2 to 4 uM incubated for 24 hrs by DAPI staining based confocal microscopic analysis; format: functional, cell-based; settings: dose 2-4 µM
# HCT-116 [18] = assay: Induction of autophagy in human HCT-116 cells assessed as increase in LC3-II expression at 3 uM measured after 48 to 60 hrs by Western blot analysis; format: functional, cell-based; settings: time 48-60 hrs
# HCT-116 [19] = assay: Induction of autophagy in human HCT-116 cells assessed as increase in p62 expression at 3 uM measured after 48 to 60 hrs by Western blot analysis; format: functional, cell-based; settings: time 48-60 hrs
# HCT-116 [20] = assay: Induction of autophagy in ATG5 knockout human HCT-116 cells assessed as increase in LC3-II expression upto 4 uM measured after 24 hrs by Western blot analysis; format: functional, cell-based
# HCT-116 [21] = assay: Induction of autophagy in ATG7 knockout human HCT-116 cells assessed as increase in LC3-II expression upto 4 uM measured after 24 hrs by Western blot analysis; format: functional, cell-based
# HCT-116 [22] = assay: Induction of apoptosis in ATG5 knockout human HCT-116 cells assessed as increase in caspase 3 expression upto 4 uM incubated for 24 hrs by Western blot analysis; format: functional, cell-based
# HCT-116 [23] = assay: Antiproliferative activity against human HCT-116 cells expressing ATG7-FLAG assessed as inhibition of cell growth measured after 24 hrs by CCK-8 assay; format: functional, cell-based; settings: HCT-116, 24 h
# HCT-116 [24] = assay: Upregulation of hedgehog signaling pathway in human HCT-116 cells at 2 uM incubated for 24 hrs by RNA sequencing analysis; format: functional, cell-based
# HCT-116 [25] = assay: Upregulation of IFN-alpha response pathway in human HCT-116 cells at 2 uM incubated for 24 hrs by RNA sequencing analysis; format: functional, cell-based
# HCT-116 [26] = assay: Downregulation of oxidative phosphorylation gene in human HCT-116 cells at 2 uM incubated for 24 hrs by RNA sequencing analysis; format: functional, cell-based
# HCT-116 [27] = assay: Downregulation of DNA repair gene in human HCT-116 cells at 2 uM incubated for 24 hrs by RNA sequencing analysis; format: functional, cell-based
smiles,measurement,setting,value
CN1CCN(Cc2cc3c4ccccc4n(CCCc4ccccc4)c3c(CN3CCN(C)CC3)n2)CC1,IC50,MCF7,13.5 µM
same,IC50,A-375,11.5 µM
same,IC50,HT-29,2.02 µM
same,IC50,CWR22R,3.86 µM
same,IC50,ECa-109 cell line,8.62 µM
same,IC50,HCT-116 [1],4.97 µM
same,Activity,HCT-116 [2],Tde
same,viability at 2 µM,HCT-116 [3],82.1%
same,Activity,HCT-116 [4],6.2%
same,Activity,HCT-116 [5],5.6%
same,Activity,HCT-116 [6],6.8%
same,Activity,HCT-116 [7],6%
same,Activity,HCT-116 [8],4.9%
same,viability at 1 µM,HCT-116 [9],84.8%
same,Activity,HCT-116 [10],6.7%
same,Activity,HCT-116 [11],5.4%
same,Activity,HCT-116 [12],4.6%
same,Activity,HCT-116 [13],6.3%
same,Activity,HCT-116 [14],inactive
same,IC50,HCT-116 [15],4.71 µM
same,Activity,HCT-116 [16],Active
same,Activity,HCT-116 [17],Active
same,Activity,HCT-116 [18],inactive
same,Activity,HCT-116 [19],inactive
same,Activity,HCT-116 [20],inactive
same,Activity,HCT-116 [21],inactive
same,Activity,HCT-116 [22],inactive
same,IC50,HCT-116 [23],5.09 µM
same,Activity,HCT-116 [24],Active
same,Activity,HCT-116 [25],Active
same,Activity,HCT-116 [26],Active
same,Activity,HCT-116 [27],Active
